Results published in patent US20080182882A1, “N-HYDROXYAMIDINOHETEROCYCLES AS MODULATORS OF INDOLEAMINE 2,3-DIOXYGENASE” (INCYTE CORPORATION, priority 2006, published 2008).
pIC50: −log10 of the molar value.

Columns and labels:
[1] = target: T1, Human indoleamine 2,3-dioxygenasae (IDO) (Homo sapiens, UniProt P14902); assay: Human indoleamine 2,3-dioxygenase (IDO) enzyme assay; assay type: biochemical; details: 95 nM IDO, 2 mM D-Trp, pH 6.5, room temperature
T1 construct: His tag (N); made in house; host or cells: E. coli
T1 sequence (P14902 whole entry): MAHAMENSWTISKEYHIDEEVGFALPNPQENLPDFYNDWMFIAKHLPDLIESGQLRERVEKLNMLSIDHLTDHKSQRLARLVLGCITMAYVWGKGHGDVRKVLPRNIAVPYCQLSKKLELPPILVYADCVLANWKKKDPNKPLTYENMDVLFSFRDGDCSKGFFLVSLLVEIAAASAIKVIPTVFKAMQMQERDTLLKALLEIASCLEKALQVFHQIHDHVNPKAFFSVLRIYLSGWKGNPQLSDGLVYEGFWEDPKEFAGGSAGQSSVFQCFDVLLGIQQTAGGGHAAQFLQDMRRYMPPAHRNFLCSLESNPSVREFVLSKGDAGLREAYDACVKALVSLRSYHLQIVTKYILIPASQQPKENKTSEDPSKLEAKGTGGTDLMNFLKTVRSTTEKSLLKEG
Protocol: Human indoleamine 2,3-dioxygenasae (IDO) with an N-terminal His tag was expressed in E. coli and purified to homogeneity. IDO catalyzes the oxidative cleavage of the pyrrole ring of the indole nucleus of tryptophan to yield N′-formylkynurenine. The assays were performed at room temperature as described in the literature using 95 nM IDO and 2 mM D-Trp in the presence of 20 mM ascorbate, 5 μM methylene blue and 0.2 mg/mL catalase in 50 mM potassium phosphate buffer (pH 6.5). The initial reaction rates were recorded by continuously following the absorbance increase at 321 nm due to the formation of N′-formlylkynurenine. See: Sono, M., Taniguchi, T., Watanabe, Y., and Hayaishi, O. (1980) J. Biol. Chem. 255, 1339-1345 Compound activity is provided in Table 2 below.

[2] = target: T2, indoleamine 2,3-dioxygenase (IDO) in HeLa cells (Homo sapiens, UniProt P14902); assay: HeLa cell-based indoleamine 2,3-dioxygenase (IDO)/kynurenine assay; details: IFN-γ 50 ng/mL, 48 hours incubation, kynurenine at 480 nm
T2 construct: host or cells: HeLa cells, IFN-γ induced
T2 sequence (P14902 whole entry): as above
Protocol: HeLa cells (#CCL-2) can be obtained from the American Type Tissue Culture Collection (ATCC, Manassas, Va.) and routinely maintained in minimum essential medium (eagle) with 2 mM L-glutamine and Earle's BSS adjusted to contain 1.5 g/L sodium bicarbonate, 0.1 mM non-essential amino acids, 1 mM sodium pyruvate and 10% fetal bovine serum (all from Invitrogen). Cells are kept at 37° C. in a humidified incubator supplied with 5% CO2. The assay is performed as follows: HeLa cells are seeded in a 96 well culture plate at a density of 5×10^3 per well and grown overnight. On the next day, IFN-γ (50 ng/mL final concentration) and serial dilutions of compounds (in total volume of 200 μL culture medium) are added into cells. After 48 hours of incubation, 140 μL of the supernatant per well is transferred to a new 96 well plate. 10 μL of 6.1 N trichloroacetic acid (#T0699, Sigma) is mixed into each well and incubated at 50° C. for 30 min to hydrolyze N-formylkynurenine produced by indoleamine 2,3-dioxygenase to kynurenine. […] The yellow color derived from Kynurenine is measured at 480 nm using a SPECTRAmax 250 microplate reader (Molecular Devices). […] The percent inhibition at individual concentrations is determined and the average values of duplicates are obtained. The data is analyzed by using nonlinear regression to generate IC50 values (Prism Graphpad). […]

LLC tumors = LLC tumors in C57B1/6 mice, versus placebo (Friberg, M., et al); cited from earlier work
P815 tumor = details: pre-immunized immune-competent mice, IDO-expressing tumors (Uyttenhove, C., et al); cited from earlier work

Row | SMILES | pIC50 [1] | pIC50 [2] | formation of tumors (LLC tumors) | growth of tumors (P815 tumor)
1 | Cn1cc(C[C@H](N)C(=O)O)c2ccccc21 [Example 1-MT, 1-methyl-tryptophan] |  |  | markedly delayed | inhibited
2 | OCc1nonc1C(=NO)NCc1cc(Cl)ccc1Cl [Example 2] | > 5.30 |  |  | 
3 | Cc1ccc(C)c(CNC(=NO)c2nonc2CO)c1 [Example 4] | > 5.30 |  |  | 

Second part, led by results:

Row | pIC50 [1] | pIC50 [2] | SMILES | formation of tumors (LLC tumors) | growth of tumors (P815 tumor)
4 | > 6.00 | > 6.30 | Cc1ccc(Cl)cc1CNC(=NO)c1nonc1CO [Example 1, N-(5-chloro-2-methylbenzyl)-N′-hydroxy-4-(hydroxymethyl)-1,2,5-oxadiazole-3-carboximidamide] |  | 
5 | > 6.00 | > 6.30 | OCc1nonc1C(=NO)NCc1cc(Br)ccc1F [Example 3] |  | 
